The record followed here is patent US8716292B2, “Riminophenazines with 2-(heteroaryl)amino substituents and their anti-microbial activity” (priority 2010, dated 2014).

Values after ≈ are worked out from the molar mass of the structure shown.

The first assay has as its system Mycobacterium tuberculosis H37Rv strains. Briefly: In vitro assay for antimicrobial susceptibility (microplate Alamar blue MIC). The format is cell-based. The following applies: Mycobacterium tuberculosis, H37RV, 7H9, Alamar blue, inhibition ≧90%; read-out: MIC (μg/mL) against H37Rv.
Regarding `Fc1ccc(-n2c3c/c(=N\C4CCOCC4)c(Nc4ncccn4)cc-3nc3ccccc32)cc1` [TBI-1084, 5-(4-Fluorophenyl)-3-(4-tetrahydropyranyl)imino-2-(pyrimidin-2-yl)amino-3,5-dihydrophenazine], the MIC was 0.043 µg/mL (≈ 0.0922 µM).

The assay is the same for the next values; noted with them: Mycobacterium tuberculosis, H37RV, in vitro, Mycobacterium tuberculosis H37Rv strains; read-out: MIC (μg/mL) against H37Rv.
Take `CN1CCC(/N=c2\cc3n(-c4ccc(C(F)(F)F)cc4)c4ccccc4nc-3cc2Nc2cccnc2)CC1` [TBI-689, 5-(4-Trifluoromethylphenyl)-3-(N-methyl-4-piperidyl)imino-2-(3-pyridyl)amino-3,5-dihydrophenazine]: the MIC is 0.125 µg/mL (≈ 0.236 µM).

Consider `Cc1ccc(Nc2cc3nc4ccc(F)cc4n(-c4ccc(Cl)c(Cl)c4)c-3c/c2=N\C(C)C)cn1` [TBI-896, 7-Fluoro-5-(3,4-dichlorophenyl)-3-(1-methylethyl)imino-2-(6-methyl-3-pyridyl)amino-3,5-dihydrophenazine], for which the MIC was 0.25 µg/mL (≈ 0.494 µM).

Take `CC(C)/N=c1\cc2n(-c3ccc(OC(F)(F)F)cc3)c3ccccc3nc-2cc1Nc1cccnc1` [TBI-157, 5-(4-Trifluoromethoxyphenyl)-3-(1-methylethyl)imino-2-(3-pyridyl)amino-3,5-dihydrophenazine]: the MIC is 0.03 µg/mL (≈ 0.0613 µM).

As for `COc1ncccc1Nc1cc2nc3ccccc3n(-c3ccc(Br)cc3)c-2c/c1=N\C(C)C` [TBI-516, 5-(4-Bromophenyl)-3-(1-methylethyl)imino-2-(2-methoxy-3-pyridyl)amino-3,5-dihydrophenazine], the MIC came to 0.049 µg/mL (≈ 0.0953 µM).

With `COc1ncccc1Nc1cc2nc3cc(F)ccc3n(-c3ccc(Cl)c(Cl)c3)c-2c/c1=N\C1CCOCC1` [TBI-877, 8-Fluoro-5-(3,4-dichlorophenyl)-3-(4-tetrahydropyranyl)imino-2-(2-methoxy-3-pyridyl)amino-3,5-dihydrophenazine], the MIC was 0.091 µg/mL (≈ 0.161 µM).

`COC1CCC(/N=c2\cc3n(-c4ccc(OC(F)(F)F)cc4)c4ccccc4nc-3cc2Nc2cccnc2)CC1` (stereo not shown) [TBI-162, 5-(4-Trifluoromethoxyphenyl)-3-(4-methoxycyclohexyl)imino-2-(3-pyridyl)amino-3,5-dihydrophenazine]: the MIC is 0.03 µg/mL (≈ 0.0536 µM).

As to `COc1ncccc1Nc1cc2nc3ccccc3n(-c3ccc(C(F)(F)F)cc3)c-2c/c1=N\C1CCC(O)CC1` (stereo not shown) [TBI-719, 5-(4-Trifluoromethylphenyl)-3-(4-hydroxycyclohexyl)imino-2-(2-methoxy-3-pyridyl)amino-3,5-dihydrophenazine], the MIC came to 0.204 µg/mL (≈ 0.365 µM).

As for `Cc1ncccc1Nc1cc2nc3ccccc3n(-c3ccc(Br)cc3)c-2c/c1=N\C(C)C` [TBI-507, 5-(4-Bromophenyl)-3-(1-methylethyl)imino-2-(2-methyl-3-pyridyl)amino-3,5-dihydrophenazine], the MIC stood at 0.062 µg/mL (≈ 0.124 µM).

In the case of `COC1CCC(/N=c2\cc3n(-c4ccc(F)cc4)c4ccccc4nc-3cc2Nc2cccnc2)CC1` (stereo not shown) [TBI-685, 5-(4-Fluorophenyl)-3-(4-methoxycyclohexyl)imino-2-(3-pyridyl)amino-3,5-dihydrophenazine], the MIC came to 0.125 µg/mL (≈ 0.253 µM).

For `COc1ncccc1Nc1cc2nc3ccc(F)cc3n(-c3ccc(OC(F)(F)F)cc3)c-2c/c1=N\C1CC1` [TBI-857], the MIC was 0.045 µg/mL (≈ 0.084 µM).

Turning to `Cc1ccc(Nc2cc3nc4ccccc4n(-c4ccc(F)cc4)c-3c/c2=N\[C@H]2CC[C@H](O)CC2)cn1` [TBI-906, 5-(4-Fluorophenyl)-3-(1′,4′-trans-4-hydroxycyclohexyl)imino-2-(6-methyl-3-pyridyl)amino-3,5-dihydrophenazine], the MIC was found to be 0.5 µg/mL (≈ 1.01 µM).

Consider `COC1CCC(/N=c2\cc3n(-c4ccc(Br)cc4)c4ccccc4nc-3cc2Nc2cccnc2)CC1` (stereo not shown) [TBI-091, 5-(4-Bromophenyl)-3-(4-methoxycyclohexyl)imino-2-(3-pyridyl)amino-3,5-dihydrophenazine], for which the MIC was found to be 0.062 µg/mL (≈ 0.112 µM).

As to `Cc1ccc(-n2c3c/c(=N\C4CCN(CC(C)C)CC4)c(Nc4cccnc4C)cc-3nc3ccccc32)cc1` [TBI-325, 5-(4-Methylphenyl)-3-(N-isobutyl-4-piperidyl)imino-2-(2-methyl-3-pyridyl)amino-3,5-dihydrophenazine], the MIC was determined as 0.056 µg/mL (≈ 0.106 µM).

As to `Cc1ncccc1Nc1cc2nc3ccccc3n(-c3ccc(Cl)cc3)c-2c/c1=N\C(C)C` [TBI-448, 5-(4-Chlorophenyl)-3-(1-methylethyl)imino-2-(2-methyl-3-pyridyl)amino-3,5-dihydrophenazine], the MIC worked out at 0.055 µg/mL (≈ 0.121 µM).

With `CC(=O)Nc1ccc(Nc2cc3nc4ccccc4n(-c4ccc(F)cc4)c-3c/c2=N\[C@H]2CC[C@H](O)CC2)cn1` [TBI-917, 5-(4-Fluorophenyl)-3-(1′,4′-trans-4-hydroxycyclohexyl)imino-2-(6-acetamino-3-pyridyl)amino-3,5-dihydrophenazine], the MIC is 1 µg/mL (≈ 1.86 µM).

Consider `Cc1ncccc1Nc1cc2nc3ccccc3n(-c3cccc(OC(F)(F)F)c3)c-2c/c1=N\C1CCOCC1` [TBI-1035, 5-(3-Trifluoromethoxyphenyl) 3-(4-tetrahydropyranyl)imino-2-(2-methyl-3-pyridyl)amino-3,5-dihydrophenazine], for which the MIC turned out to be 0.062 µg/mL (≈ 0.114 µM).

Regarding `Cc1ccc(Nc2cc3nc4ccccc4n(-c4ccc(F)cc4)c-3c/c2=N\C(C)C)cn1` [TBI-692, 5-(4-Fluorophenyl)-3-(1-methylethyl)imino-2-(6-methyl-3-pyridyl)amino-3,5-dihydrophenazine], the MIC was found to be 0.06 µg/mL (≈ 0.137 µM).

As for `Clc1ccc(-n2c3c/c(=N\C4CCSCC4)c(Nc4cccnc4)cc-3nc3ccccc32)cc1` [TBI-458], the MIC amounted to 0.018 µg/mL (≈ 0.0361 µM).

For the compound `COc1ccc2nc3cc(Nc4ccc(C)nc4)/c(=N/C(C)C)cc-3n(-c3ccc(Cl)cc3)c2c1` [TBI-898], the MIC stood at 0.25 µg/mL (≈ 0.517 µM).

As to `Cc1ccc(Nc2cc3nc4ccccc4n(-c4ccccc4)c-3c/c2=N\C2CCN(CC(C)C)CC2)cn1` [TBI-068, 5-Phenyl-3-(N-isobutyl-4-piperidyl)imino-2-(6-methyl-3-pyridyl)amino-3,5-dihydrophenazine], the MIC was 0.156 µg/mL (≈ 0.302 µM).

With `CC(C)/N=c1\cc2n(-c3ccccc3)c3ccccc3nc-2cc1Nc1cccnc1` [TBI-054, 5-Phenyl-3-(1-methyethyl)imino-2-(3-pyridyl)amino-3,5-dihydrophenazine], the MIC was 0.03 µg/mL (≈ 0.074 µM).

On to `Cc1ccc(-n2c3c/c(=N\C4CCN(C)CC4)c(Nc4ccc(C)nc4)cc-3nc3ccccc32)cc1` [TBI-319, 5-(4-Methylphenyl)-3-(N-methyl-4-piperidyl)imino-2-(6-methyl-3-pyridyl)amino-3,5-dihydrophenazine], for which the MIC is 0.173 µg/mL (≈ 0.354 µM).

As to `Cc1ccc(-n2c3c/c(=N\C4CCN(CC(C)C)CC4)c(Nc4cccnc4)cc-3nc3ccccc32)cc1` [TBI-305, 5-(4-Methylphenyl)-3-(N-isobutyl-4-piperidyl)imino-2-(3-pyridyl)amino-3,5-dihydrophenazine], the MIC is 0.125 µg/mL (≈ 0.242 µM).

In the case of `COc1ncccc1Nc1cc2nc3ccccc3n(-c3ccc(C(F)(F)F)cc3)c-2c/c1=N\C1CC1` [TBI-718, 5-(4-Trifluoromethylphenyl)-3-cyclopropylimino-2-(2-methoxy-3-pyridyl)amino-3,5-dihydrophenazine], the MIC is 0.015 µg/mL (≈ 0.0299 µM).

As to `COc1ncccc1Nc1cc2nc3ccccc3n(-c3ccc(Cl)cc3)c-2c/c1=N\C(C)C` [TBI-438, 5-(4-Chlorophenyl)-3-(1-methylethyl)imino-2-(2-methoxy-3-pyridyl)amino-3,5-dihydrophenazine], the MIC came to 0.03 µg/mL (≈ 0.0638 µM).

Turning to `Cc1ncccc1Nc1cc2nc3ccccc3n(-c3ccccc3)c-2c/c1=N\C1CCC(O)CC1` (stereo not shown) [TBI-092], the MIC came out at 0.5 µg/mL (≈ 1.05 µM).

Take `COC1CCC(/N=c2\cc3n(-c4ccc(Cl)cc4)c4cc(F)ccc4nc-3cc2Nc2ccc(C)nc2)CC1` (stereo not shown) [TBI-925]: the MIC amounted to 0.078 µg/mL (≈ 0.144 µM).

Take `COc1ncccc1Nc1cc2nc3ccccc3n(-c3cccc(Cl)c3)c-2c/c1=N\C1CCC1` [TBI-824, 5-(3-Chlorophenyl)-3-cyclobutylimino-2-(2-methoxy-3-pyridyl)amino-3,5-dihydrophenazine]: the MIC came out at 0.06 µg/mL (≈ 0.124 µM).

Turning to `Cc1ccc(Nc2cc3nc4ccccc4n(-c4ccc(Cl)c(Cl)c4)c-3c/c2=N\C2CCC2)cn1` [TBI-948, 5-(3,4-Dichlorophenyl)-3-cyclobutylimino-2-(6-methyl-3-pyridyl)amino-3,5-dihydrophenazine], the MIC is 0.125 µg/mL (≈ 0.25 µM).

For the compound `COCC(COC)/N=c1\cc2n(-c3ccc(Cl)c(Cl)c3)c3ccccc3nc-2cc1Nc1cccnc1OC` [TBI-375, 5-(3,4-Dichlorophenyl)-3-(1,3-dimethoxyisopropyl)imino-2-(2-methoxy-3-pyridyl)amino-3,5-dihydrophenazine], the MIC came to 0.125 µg/mL (≈ 0.221 µM).

As for `COc1ccc(Nc2cc3nc4ccccc4n(-c4ccc(F)cc4)c-3c/c2=N\C2CC2)cn1` [TBI-931, 5-(4-Fluorophenyl)-3-cyclopropyimino-2-(6-methoxy-3-pyridyl)amino-3,5-dihydrophenazine], the MIC came to 0.238 µg/mL (≈ 0.527 µM).

Consider `COc1ncccc1Nc1cc2nc3ccccc3n(-c3ccc(C)cc3)c-2c/c1=N\C(C)C` [TBI-308, 5-(4-Methylphenyl)-3-(1-methylethyl)imino-2-(2-methoxy-3-pyridyl)amino-3,5-dihydrophenazine], for which the MIC turned out to be 0.125 µg/mL (≈ 0.278 µM).

Regarding `Cc1ccc(Nc2cc3nc4cc(F)ccc4n(-c4ccc(Cl)c(Cl)c4)c-3c/c2=N\C2CCOCC2)cn1` [TBI-873, 8-Fluoro-5-(3,4-dichlorophenyl)-3-(4-tetrahydropyranyl)imino-2-(6-methyl-3-pyridyl)amino-3,5-dihydrophenazine], the MIC was 0.076 µg/mL (≈ 0.139 µM).

Turning to `c1ccc(-n2c3c/c(=N\CCN4CCOCC4)c(Nc4cccnc4)cc-3nc3ccccc32)cc1` [TBI-056, 5-Phenyl-3-(2-morpholinoethyl)imino-2-(3-pyridyl)amino-3,5-dihydrophenazine], the MIC turned out to be 0.25 µg/mL (≈ 0.525 µM).

For the compound `Cc1cncc(Nc2cc3nc4ccccc4n(-c4ccc(C(F)(F)F)cc4)c-3c/c2=N\C2CC2)c1` [TBI-725, 5-(4-Trifluoromethylphenyl)-3-cyclopropylimino-2-(5-methyl-3-pyridyl)amino-3,5-dihydrophenazine], the MIC came out at 0.031 µg/mL (≈ 0.0638 µM).

Still in this assay, the particulars now being: in vitro, Mycobacterium tuberculosis H37Rv strains.
Turning to `COc1ncccc1Nc1cc2nc3ccc(F)cc3n(-c3ccc(Cl)cc3)c-2c/c1=N\C(C)C` [TBI-926, 7-Fluoro-5-(4-chlorophenyl)-3-(1-methylethyl)imino-2-(2-methoxy-3-pyridyl)amino-3,5-dihydrophenazine], the “MIC (μg/mL) against H37Rv” value worked out at 0.103 µg/mL (≈ 0.211 µM).
